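Protocol summary: plate cells (96-well), add compound at 5 concentrations, incubate 48 h, interpolate endpoints linearly. The concentration for 50% growth inhibition is given as GI50.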 Calls of active or inactive are those of the source. No stated cut-off is given here; in the data, active = GI50 up to about 1.1 µM and inactive = higher.

Common to all, as to assay: DTP human tumour cell line panel, 48 h
For test [1], the system named is SK-MEL-5.
Test [2] has as its system NCI-H23.
For test [3], the system named is RPMI-8226.
For test [4], the system named is EKVX.
The test system of test [5] is K562.
Test [6] deals with IGROV-1.
Test [7] deals with NCI-H226.
Test [8] has as its system SK-MEL-2.
Test [9] concerns CAKI-1.
The test system of test [10] is UACC-257.
In test [11] the test system is ACHN.
The subject of test [12] is SK-OV-3.
Test [13] deals with SR.
The test system of test [14] is A498.

As a reminder, the GI50 is the concentration at which growth is held to half of that of the control. Consider `CCN(CC)c1ccc(C(=C2C=CC(=[N+](CC)CC)C=C2)c2ccccc2)cc1`, for which the 50% growth inhibitory concentration (GI50) in [1] was 0.0166 µM (active); in test [2], 0.0283 µM (active); in test [3] it was < 0.01 µM (active); in test [4], 0.108 µM (active); in [5], 0.0213 µM (active); in [6], 0.0689 µM (active). Moreover, the concentration for 50% growth inhibition (GI50) in test [7] was 0.023 µM (active); in test [8], 0.0279 µM (active); in test [9], 0.164 µM (active); in [10], 0.0472 µM (active); in test [11], 0.0313 µM (active); in test [12] it was 0.0304 µM (active). Besides, the GI50 in test [13] is 0.0224 µM (active).
Take `CC(C)N(O)C(=N)c1ccccc1`: the GI50 in [1], in [2], in test [4], in [7], in test [8] and in test [9] was > 100 µM (inactive) throughout. Moreover, the GI50 in test [10] was > 100 µM (inactive).
For `O=P(c1ccccc1)(c1ccccc1)C1CC=C2CCCCCC2C1` (configuration not stated), the GI50 was 19.2 µM (inactive) in [1]; 30.2 µM (inactive) in [2]; 16.1 µM (inactive) in test [3]; 35.9 µM (inactive) in test [14]; 37.9 µM (inactive) in test [4]; 28.3 µM (inactive) in test [5]. Further, the GI50 in test [6] is 37.6 µM (inactive); in [7] it was 26.3 µM (inactive); in test [8], 29.9 µM (inactive); in test [9], 23.7 µM (inactive); in test [10], 25 µM (inactive); in [12], 36.9 µM (inactive).
In the case of `O=c1c2cc(Br)ccc2[nH]c(=S)n1-c1ccc(Br)cc1`, the GI50 in test [2], in test [3], in [14], in test [4], in test [5] and in test [6] was > 100 µM (inactive) in each case. For the same compound, the GI50 in test [7] was > 100 µM (inactive); in test [8] it was 87.7 µM (inactive); in [10] it was > 100 µM (inactive); in test [11], > 100 µM (inactive); in [13], > 100 µM (inactive).
On to `O=C(CCc1nnc(S)[nH]1)NC12CC3CC(CC(C3)C1)C2`, for which the GI50 in [1], in [2], in test [14], in test [4], in test [5] and in test [6] was > 100 µM (inactive) throughout. Besides, the GI50 in [7] was > 100 µM (inactive); in test [8], > 100 µM (inactive); in [9], > 70.5 µM (inactive); in [10] it was > 100 µM (inactive); in [11], > 100 µM (inactive); in test [12], > 100 µM (inactive). In addition, the GI50 in test [13] is 1 µM (active).
On to `O=CCCCC(Sc1ccccc1)Sc1ccccc1`, for which the GI50 in [1] was 15.8 µM (inactive); in test [2], 11.5 µM (inactive); in [3], 16 µM (inactive); in [14], 38.8 µM (inactive); in test [4], 31.1 µM (inactive); in test [5] it was 14.4 µM (inactive). The GI50 in test [6] was 19.9 µM (inactive); in test [8], 20.2 µM (inactive); in test [9], 56.8 µM (inactive); in [10] it was 21.1 µM (inactive); in test [11], 16.3 µM (inactive); in [12] it was 18.7 µM (inactive). Further, the GI50 in test [13] was 15.6 µM (inactive).
For the compound `COC(=O)C(=O)C(C#N)c1ccc(CC#N)cc1` (configuration not stated), the GI50 in [2], in test [3], in [4], in [5], in [6] and in test [7] was > 100 µM (inactive) each time. The GI50 in [8], in [9], in test [10], in test [11], in [12] and in test [13] was > 100 µM (inactive) each time.
For the compound `CC1(C)OC(=O)C(=C2CCC(C(=O)Nc3cccc(C(F)(F)F)c3)N2)C(=O)O1` (configuration not stated), the GI50 in test [1] is 30.1 µM (inactive); in test [2] it was > 100 µM (inactive); in [3], 51.2 µM (inactive); in test [14], 66.1 µM (inactive); in test [4], 50.6 µM (inactive); in [5] it was 33.4 µM (inactive). For the same compound, the GI50 in test [6] is > 100 µM (inactive); in test [7] it was 91 µM (inactive); in test [8], > 100 µM (inactive); in [9], 9.77 µM (inactive); in [10], 40.3 µM (inactive); in test [11] it was 50.2 µM (inactive). Moreover, the GI50 in test [12] is > 100 µM (inactive).
Consider `CCO[C@@H]1C2C=CC(C2)[C@H]1[N+](=O)[O-]` (some centres not stated), for which the GI50 in test [1] was > 100 µM (inactive); in [2], > 100 µM (inactive); in [3] it was 72.1 µM (inactive); in test [14], > 100 µM (inactive); in test [4], > 100 µM (inactive); in test [5], 73.5 µM (inactive). In addition, the GI50 in test [6], in [7], in test [8], in test [9], in test [10] and in test [11] was > 100 µM (inactive) in each case. Further, in test [12], the GI50 was > 100 µM (inactive).
In the case of `O=C[C@]12CC=C3OC4OC5(CCCCC5)OC4[C@H]3[C@H]1C(=O)C=CC2=O` (some centres not stated), the GI50 in test [1] is 17.7 µM (inactive); in test [2] it was > 10 µM (inactive); in [14], > 100 µM (inactive); in [4], 16.1 µM (inactive); in test [5], > 10 µM (inactive); in test [7] it was > 100 µM (inactive). In addition, the GI50 in [8] is 33.7 µM (inactive); in [9], 23 µM (inactive); in test [10], 21.1 µM (inactive); in test [11], 18.2 µM (inactive); in [12], 45.8 µM (inactive); in test [13], 2.52 µM (inactive).
For the compound `CCCC/C=C/C=C/C=C/CCCCCCCC(=O)OCC(COC(=O)CCCCCCC/C=C/C1C=CC(CCCC)C(C(=O)O)C1C(=O)O)OC(=O)CCCCCCC/C=C/C=C/C=C/CCCC.OCCNCO` (configuration not stated), the GI50 is 17.4 µM (inactive) in test [1]; 19.4 µM (inactive) in [2]; 3.78 µM (inactive) in [3]; 15.3 µM (inactive) in [14]; 19 µM (inactive) in [4]; 19.5 µM (inactive) in test [5]. The GI50 in test [6] was 19.8 µM (inactive); in test [7] it was 17.5 µM (inactive); in test [8] it was 15.8 µM (inactive); in test [9], 28.8 µM (inactive); in test [10], 19.1 µM (inactive); in [11] it was 19 µM (inactive). In addition, the GI50 in [12] is 23.7 µM (inactive).
In the case of `c1cc(-c2cn[nH]c2)cc(-c2cn[nH]c2)c1`, the GI50 in test [1] is 32.6 µM (inactive); in [2], 47 µM (inactive); in test [3], 32.7 µM (inactive); in test [14], 25.3 µM (inactive); in test [4], 6.24 µM (inactive); in test [5], 43 µM (inactive). Besides, the GI50 was 51.2 µM (inactive) in test [6]; 56 µM (inactive) in test [8]; 8.04 µM (inactive) in test [9]; 90.8 µM (inactive) in test [10]; 8.55 µM (inactive) in [12]; 31.8 µM (inactive) in test [13].
Take `COc1ccc(/C=N/N=C(\N)NO)cc1F`: the GI50 in [1] is 5.02 µM (inactive); in test [2], 29.9 µM (inactive); in [3], 28.4 µM (inactive); in test [4], 8.13 µM (inactive); in [5], 8 µM (inactive); in test [6] it was 31.3 µM (inactive). The GI50 in [7] is 5.42 µM (inactive); in [8], 13.3 µM (inactive); in [9], 14.5 µM (inactive); in [10], 46.6 µM (inactive); in [11] it was 10.1 µM (inactive); in test [12] it was 24.5 µM (inactive). Further, the GI50 in test [13] is 15.9 µM (inactive).
Regarding `O=C(CC1=Nc2nnc(-c3nnc4n3C(=O)C(CC(=O)c3cccnc3)=N4)n2C1=O)c1cccnc1`, the GI50 in test [1], in test [2], in test [3], in test [14], in test [5] and in [6] was > 100 µM (inactive) throughout. Further, the GI50 in [7], in test [8], in test [9], in test [10], in test [11] and in [12] was > 100 µM (inactive) throughout.
With `CS(=O)(=O)N(CCC#N)c1ccc(/C=C2\N=C(c3ccccc3Cl)OC2=O)cc1`, the GI50 in test [1], in [2], in test [3], in test [14], in test [4] and in [5] was > 100 µM (inactive) each time. The GI50 in [6], in test [7], in test [8], in [9], in [10] and in [11] was > 100 µM (inactive) in each case. The GI50 in [12] is > 100 µM (inactive).
With `O=C1/C(=C/c2ccccc2Cl)COc2ccccc21`, the GI50 is 19.1 µM (inactive) in test [2]; 3.53 µM (inactive) in [3]; 16.6 µM (inactive) in test [14]; 16 µM (inactive) in [4]; 3.93 µM (inactive) in [5]; 18.1 µM (inactive) in [6]. In addition, the GI50 in test [8] was 15.5 µM (inactive); in test [10] it was 15.1 µM (inactive); in test [11] it was 19.1 µM (inactive); in test [12], 32.6 µM (inactive).

Source of the values: ChEMBL document CHEMBL1201862, “PubChem BioAssay data set” (2004).
